{
  "source": "patent US7425548B2",
  "about": "“Materials and methods for immune system stimulation” (Variety Chidren's Hospital, priority 2004, dated 2008)",
  "key": {"[1]": {"system": "RAW 264.7 cells", "assay": "RR1-induced TNF-α synthesis with and without CAPE, ELISA", "type": "cell-based, mouse", "conditions": "CAPE 10 μg/ml for 1 hour prior to RR1, all RR1 concentrations", "experimental": "The cells were pre-incubated with 10 μg/ml CAPE for 1 hour in 0.5% FBS containing DMEM medium and replaced with medium containing RR1 at varying concentrations for 4 hour at 37° C. The medium was analyzed for secreted TNF-α using ELISA protocol.\nRR1-induced TNF-α synthesis. RAW 264.7 cells (0.5×10^6/ml) were plated on 6-well plates with DMEM medium containing 0.5% FBS (starvation). Once the cells were attached, medium was replaced, RR1 was added at 0, 100, 500 and 1000 μg/ml doses and incubated at 37° C. for 24 hours. The medium was analyzed for the secreted TNF-α using the ELISA kit (BD BIOSCIENCES kit, San Jose, Calif.) based on the manufacturer's protocol.\nTo determine the effect of NF-κB inhibitor CAPE on TNF-α synthesis, RAW 264.7 cells were treated with 10 μg/ml of CAPE for 1 hour at 37° C. followed by treatment with RR1 (0-1000 μg/ml) overnight in the incubator. The secreted TNF-α in the medium was analyzed using ELISA (BD BIOSCIENCES, San Jose, Calif.)."}, "[2]": {"system": "RAW264.7 macrophages", "assay": "Opsonized binding and phagocytosis of FITC-zymosan A bioparticles", "type": "cell-based, mouse", "conditions": "37° C.", "experimental": "Monocytes were incubated with RR1 at 37° C. for 1 hour followed by FITC-labeled zymosan A bioparticles for another 1 hour at 37° C. The cells were washed and intracellular fluorescence measured in a Coulter Elite Flow cytometer.\nOpsonized binding and Phagocytosis. To determine the effect of RR1 and laminarin on opsonized binding and phagocytosis of zymosan A particles, RAW 264.7 cells were treated with RR1 or laminarin (0 and 500 μg/ml) in DMEM at 37° C. for 1 hour. This will ensure the release of opsonins and facilitate opsonic binding. The cells were washed with PBS twice and incubated with zymosan A-FITC bioparticles at a ratio of 25 particles/cell at 37° C. for 1 hour. The cells were suspended in PBS after removing the unbound zymosan particles by extensive washing with the medium, and the intracellular fluorescence analyzed in a Coulter Elite flow cytometer. The fluorescence intensity was expressed as percentage of control."}},
  "data": [
    {"molecule": "O=C(/C=C/c1ccc(O)c(O)c1)OCCc1ccccc1", "note": "[CAPE, caffeic acid phenethyl ester, reference compound]", "values": [
      {"measurement": "effect on RR1-induced TNF-α synthesis", "setting": "[1]", "result": "completely inhibited"}
    ]},
    {"molecule": "Laminarin [reference compound]", "values": [
      {"measurement": "inhibitory effect on opsonized binding and phagocytosis of zymosan A bioparticles", "setting": "[2]; 500 μg/ml, 1 hour", "result": "absolute inhibitory effect"},
      {"measurement": "inhibition of zymosan bioparticle internalization", "setting": "[2]; opsonized", "result": "about 90%"}
    ]}
  ]
}
